Structures are written as SMILES. Square brackets hold non-standard residues; d marks the D form. Peptide text beside a SMILES is read from it. * marks the point of attachment. Hydrocinnamoyl = O=C(CCc1ccccc1)*; Nle = CCCC[C@H](N)C(=O)O; Hexanoyl = CCCCCC(=O)*

This is an account of results in patent US5093233A, “Antagonists with position 13 modification” (Merck & Co., Inc., priority 1990, dated 1992).

This assay deals with T1, PTH receptor, bovine renal cortical plasma membranes (Bos taurus, UniProt Q1LZF7).
T1 construct: from tissue; host or cells: bovine renal cortex (plasma membrane preparation)
T1 sequence (Q1LZF7 29-589): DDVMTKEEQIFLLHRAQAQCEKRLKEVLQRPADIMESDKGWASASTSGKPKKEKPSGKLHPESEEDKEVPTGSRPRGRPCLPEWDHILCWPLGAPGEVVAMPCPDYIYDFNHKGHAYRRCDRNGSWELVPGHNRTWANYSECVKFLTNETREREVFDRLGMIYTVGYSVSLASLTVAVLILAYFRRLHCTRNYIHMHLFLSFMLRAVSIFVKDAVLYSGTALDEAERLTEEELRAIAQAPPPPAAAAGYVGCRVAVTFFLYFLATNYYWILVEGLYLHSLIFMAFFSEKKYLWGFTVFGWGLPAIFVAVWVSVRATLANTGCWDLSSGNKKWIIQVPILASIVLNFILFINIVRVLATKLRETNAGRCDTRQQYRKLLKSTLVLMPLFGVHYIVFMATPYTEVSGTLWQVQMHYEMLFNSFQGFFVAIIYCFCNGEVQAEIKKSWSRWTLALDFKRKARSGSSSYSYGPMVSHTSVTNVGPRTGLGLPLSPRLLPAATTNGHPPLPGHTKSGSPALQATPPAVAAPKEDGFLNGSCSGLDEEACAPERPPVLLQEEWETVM
In words: PTH binding assay in bovine renal membranes. The settings on record: radioligand [Nle8,18,125I-Tyr34]bPTH(1-34)NH2, 30 min at 21° C. The procedure: PTH analogues were analyzed in a new receptor assay reported in Goldman et al., Endocrin. 123: 1468-1475 (1988). The binding assay used [Nle^8,18,^125 I-Tyr^34 ]bPTH (1-34)NH2 which was purified by HPLC (Novapak C18, 32-35% CH3 CN in 0.1% TFA) and was stored as aliquots in 25 mM TrisHCl/1%BSA at -70° C. Bovine renal cortical plasma membranes were incubated with radioligand (25,000 cpm) in a Tris-containing buffer (250 ul) for 30 min. at 21° C. Once equilibrium was reached, bound and free radioligand were separated by centrifugation. High specific binding (85%) to bovine renal cortical membranes was obtained consistently.
Molecule `CCCC[C@H](NC(=O)[C@H](CO)NC(=O)[C@H](CO)NC(=O)[C@H](CC(C)C)NC(=O)[C@H](Cc1c[nH]cn1)NC(=O)[C@H](CCCCNC(=O)CCc1ccccc1)NC(=O)[C@@H](Cc1c[nH]c2ccccc12)NC(=O)[C@H](CC(C)C)NC(=O)[C@H](CC(N)=O)NC(=O)[C@H](Cc1c[nH]cn1)NC(=O)[C@H](CCCC)NC(=O)[C@@H](N)Cc1ccccc1)C(=O)N[C@@H](CCC(=O)O)C(=O)N[C@@H](CCCNC(=N)N)C(=O)N[C@H](C(=O)N[C@@H](CCC(=O)O)C(=O)N[C@@H](Cc1c[nH]c2ccccc12)C(=O)N[C@@H](CC(C)C)C(=O)N[C@@H](CCCNC(=N)N)C(=O)N[C@@H](CCCCN)C(=O)N[C@@H](CCCCN)C(=O)N[C@@H](CC(C)C)C(=O)N[C@@H](CCC(N)=O)C(=O)N[C@@H](CC(=O)O)C(=O)N[C@H](C(=O)N[C@@H](Cc1c[nH]cn1)C(=O)N[C@@H](CC(N)=O)C(=O)N[C@@H](Cc1ccc(O)cc1)C(N)=O)C(C)C)C(C)C` [Structure 3, [Nle^8,18,D-Trp^12,Lys^13 (N^ε --CO(CH2)2 -Phenyl),Tyr^34]bPTH(7-34)NH2] displayed a Kb of 4 ± 1 nM.

Consider `CCCC[C@H](NC(=O)[C@H](CO)NC(=O)[C@H](CO)NC(=O)[C@H](CC(C)C)NC(=O)[C@H](Cc1c[nH]cn1)NC(=O)[C@H](CCCCN(CC(C)C)CC(C)C)NC(=O)[C@@H](Cc1c[nH]c2ccccc12)NC(=O)[C@H](CC(C)C)NC(=O)[C@H](CC(N)=O)NC(=O)[C@H](Cc1c[nH]cn1)NC(=O)[C@H](CCCC)NC(=O)[C@@H](N)Cc1ccccc1)C(=O)N[C@@H](CCC(=O)O)C(=O)N[C@@H](CCCNC(=N)N)C(=O)N[C@H](C(=O)N[C@@H](CCC(=O)O)C(=O)N[C@@H](Cc1c[nH]c2ccccc12)C(=O)N[C@@H](CC(C)C)C(=O)N[C@@H](CCCNC(=N)N)C(=O)N[C@@H](CCCCN)C(=O)N[C@@H](CCCCN)C(=O)N[C@@H](CC(C)C)C(=O)N[C@@H](CCC(N)=O)C(=O)N[C@@H](CC(=O)O)C(=O)N[C@H](C(=O)N[C@@H](Cc1c[nH]cn1)C(=O)N[C@@H](CC(N)=O)C(=O)N[C@@H](Cc1ccc(O)cc1)C(N)=O)C(C)C)C(C)C` [Structure 4, [Nle^8,18,D-Trp^12,Lys^13 (N^ε,N^ε -diisobutyl),Tyr^34]bPTH(7-34)NH2], for which the Kb is 35 ± 4 nM.

`CCCC[C@H](NC(=O)CCc1ccccc1)C(=O)N[C@@H](Cc1c[nH]cn1)C(=O)N[C@@H](CC(N)=O)C(=O)N[C@@H](CC(C)C)C(=O)N[C@H](Cc1c[nH]c2ccccc12)C(=O)N[C@@H](CCCCNC(=O)CCc1ccccc1)C(=O)N[C@@H](Cc1c[nH]cn1)C(=O)N[C@@H](CC(C)C)C(=O)N[C@@H](CO)C(=O)N[C@@H](CO)C(=O)N[C@@H](CCCC)C(=O)N[C@@H](CCC(=O)O)C(=O)N[C@@H](CCCNC(=N)N)C(=O)N[C@H](C(=O)N[C@@H](CCC(=O)O)C(=O)N[C@@H](Cc1c[nH]c2ccccc12)C(=O)N[C@@H](CC(C)C)C(=O)N[C@@H](CCCNC(=N)N)C(=O)N[C@@H](CCCCN)C(=O)N[C@@H](CCCCN)C(=O)N[C@@H](CC(C)C)C(=O)N[C@@H](CCC(N)=O)C(=O)N[C@@H](CC(=O)O)C(=O)N[C@H](C(=O)N[C@@H](Cc1c[nH]cn1)C(=O)N[C@@H](CC(N)=O)C(=O)N[C@@H](Cc1ccc(O)cc1)C(N)=O)C(C)C)C(C)C` [Structure 1, desamino[Nle^8,18,D-Trp^12,Lys^13 (N^ε --CO(CH2)2 -Phenyl),Tyr^34]bPTH(7-34)NH2] (Hydrocinnamoyl-[Nle]HNL[dW]K(Hydrocinnamoyl)HLSS[Nle]ERVEWLRKKLQDVHNY-NH2) returned a Kb of 13 ± 2 nM.

The molecule `CCCCCC(=O)N[C@@H](Cc1c[nH]cn1)C(=O)N[C@@H](CC(N)=O)C(=O)N[C@@H](CC(C)C)C(=O)N[C@H](Cc1c[nH]c2ccccc12)C(=O)N[C@@H](CCCCNC(=O)CCc1ccccc1)C(=O)N[C@@H](Cc1c[nH]cn1)C(=O)N[C@@H](CC(C)C)C(=O)N[C@@H](CO)C(=O)N[C@@H](CO)C(=O)N[C@@H](CCCC)C(=O)N[C@@H](CCC(=O)O)C(=O)N[C@@H](CCCNC(=N)N)C(=O)N[C@H](C(=O)N[C@@H](CCC(=O)O)C(=O)N[C@@H](Cc1c[nH]c2ccccc12)C(=O)N[C@@H](CC(C)C)C(=O)N[C@@H](CCCNC(=N)N)C(=O)N[C@@H](CCCCN)C(=O)N[C@@H](CCCCN)C(=O)N[C@@H](CC(C)C)C(=O)N[C@@H](CCC(N)=O)C(=O)N[C@@H](CC(=O)O)C(=O)N[C@H](C(=O)N[C@@H](Cc1c[nH]cn1)C(=O)N[C@@H](CC(N)=O)C(=O)N[C@@H](Cc1ccc(O)cc1)C(N)=O)C(C)C)C(C)C` [Structure 2, desamino[Nle^8,18,D-Trp^12,Lys^13 (N^ε --CO(CH2)2 -Phenyl),Tyr^34]bPTH(8-34)NH2] (Hexanoyl-HNL[dW]K(Hydrocinnamoyl)HLSS[Nle]ERVEWLRKKLQDVHNY-NH2) showed a Kb of 4 ± 1 nM.
